Results published in ChEMBL document CHEMBL4732263 (Bioorg Med Chem, 2021).
Values after ≈ are worked out from the molar mass of the structure shown.

Columns and labels:
in vitro [1] = details: human, Caco-2
in vitro [2] = details: human, Caco-2; remark: listed apart in the source
in vitro [3] = details: human, Caco-2; remark: listed apart in the source
[4] = Volume of distribution at steady state in Sprague-Dawley rat blood at 2.6 mg/kg, iv up to 24 hrs by LC-MS analysis; format: ADME, organism-based; details: whole blood, read-out: Vdss
[5] = Clearance in Sprague-Dawley rat blood at 2.6 mg/kg, iv up to 24 hrs by LC-MS analysis; format: ADME, organism-based; details: whole blood
in vitro [6] = details: Balb/C, mouse, plasma; at 1 µg/mL
[7] = Clearance in Sprague-Dawley rat renal blood at 2.6 mg/kg, iv up to 24 hrs by LC-MS analysis; format: ADME, organism-based; details: whole blood
[8] = Plasma clearance in Balb/C mouse at 3.5 mg/kg, iv up to 24 hrs by LC-MS analysis; format: ADME, organism-based
in vitro [9] = details: human, liver microsomes
cells = details: Homo sapiens, HEK293, 10 min
[10] = Clearance in Balb/C mouse blood at 3.5 mg/kg, iv up to 24 hrs by LC-MS analysis; format: ADME, organism-based; details: whole blood
in vitro [11] = details: Balb/C, mouse, plasma; at 1 µg/mL; remark: listed apart in the source
[12] = Volume of distribution at steady state in Sprague-Dawley rat plasma at 2.6 mg/kg, iv up to 24 hrs by LC-MS analysis; format: ADME, organism-based; details: read-out: Vdss
[13] = AUC(0 to infinity) in Balb/C mouse plasma at 3.5 mg/kg, iv up to 24 hrs by LC-MS analysis; format: ADME, organism-based; set-up: route intravenous, dose 3.5 mg/kg, time <=24
in vitro [14] = details: human, liver microsomes; remark: listed apart in the source
[15] = mouse, microsomes, 1 h, 1 µM
[16] = Drug excretion in Sprague-Dawley rat urine at 2.6 mg/kg, iv up to 24 hrs by LC-MS analysis; format: ADME, organism-based; details: read-out: Drug excretion
in vivo = details: Balb/C, mouse, po
in vitro [17] = details: mouse, liver microsomes
in vitro [18] = details: mouse, liver microsomes; remark: listed apart in the source
[19] = human, microsomes, 1 h, 1 µM
[20] = AUC(0 to infinity) in Sprague-Dawley rat plasma at 2.6 mg/kg, iv up to 24 hrs by LC-MS analysis; format: ADME, organism-based; set-up: route intravenous, dose 2.6 mg/kg, time <=24
[21] = Volume of distribution at steady state in Balb/C mouse blood at 3.5 mg/kg, iv up to 24 hrs by LC-MS analysis; format: ADME, organism-based; details: whole blood, read-out: Vdss
[22] = target: Sodium channel protein type 5 subunit alpha (Homo sapiens, UniProt Q14524)
Sequence of Sodium channel protein type 5 subunit alpha (Q14524 whole entry): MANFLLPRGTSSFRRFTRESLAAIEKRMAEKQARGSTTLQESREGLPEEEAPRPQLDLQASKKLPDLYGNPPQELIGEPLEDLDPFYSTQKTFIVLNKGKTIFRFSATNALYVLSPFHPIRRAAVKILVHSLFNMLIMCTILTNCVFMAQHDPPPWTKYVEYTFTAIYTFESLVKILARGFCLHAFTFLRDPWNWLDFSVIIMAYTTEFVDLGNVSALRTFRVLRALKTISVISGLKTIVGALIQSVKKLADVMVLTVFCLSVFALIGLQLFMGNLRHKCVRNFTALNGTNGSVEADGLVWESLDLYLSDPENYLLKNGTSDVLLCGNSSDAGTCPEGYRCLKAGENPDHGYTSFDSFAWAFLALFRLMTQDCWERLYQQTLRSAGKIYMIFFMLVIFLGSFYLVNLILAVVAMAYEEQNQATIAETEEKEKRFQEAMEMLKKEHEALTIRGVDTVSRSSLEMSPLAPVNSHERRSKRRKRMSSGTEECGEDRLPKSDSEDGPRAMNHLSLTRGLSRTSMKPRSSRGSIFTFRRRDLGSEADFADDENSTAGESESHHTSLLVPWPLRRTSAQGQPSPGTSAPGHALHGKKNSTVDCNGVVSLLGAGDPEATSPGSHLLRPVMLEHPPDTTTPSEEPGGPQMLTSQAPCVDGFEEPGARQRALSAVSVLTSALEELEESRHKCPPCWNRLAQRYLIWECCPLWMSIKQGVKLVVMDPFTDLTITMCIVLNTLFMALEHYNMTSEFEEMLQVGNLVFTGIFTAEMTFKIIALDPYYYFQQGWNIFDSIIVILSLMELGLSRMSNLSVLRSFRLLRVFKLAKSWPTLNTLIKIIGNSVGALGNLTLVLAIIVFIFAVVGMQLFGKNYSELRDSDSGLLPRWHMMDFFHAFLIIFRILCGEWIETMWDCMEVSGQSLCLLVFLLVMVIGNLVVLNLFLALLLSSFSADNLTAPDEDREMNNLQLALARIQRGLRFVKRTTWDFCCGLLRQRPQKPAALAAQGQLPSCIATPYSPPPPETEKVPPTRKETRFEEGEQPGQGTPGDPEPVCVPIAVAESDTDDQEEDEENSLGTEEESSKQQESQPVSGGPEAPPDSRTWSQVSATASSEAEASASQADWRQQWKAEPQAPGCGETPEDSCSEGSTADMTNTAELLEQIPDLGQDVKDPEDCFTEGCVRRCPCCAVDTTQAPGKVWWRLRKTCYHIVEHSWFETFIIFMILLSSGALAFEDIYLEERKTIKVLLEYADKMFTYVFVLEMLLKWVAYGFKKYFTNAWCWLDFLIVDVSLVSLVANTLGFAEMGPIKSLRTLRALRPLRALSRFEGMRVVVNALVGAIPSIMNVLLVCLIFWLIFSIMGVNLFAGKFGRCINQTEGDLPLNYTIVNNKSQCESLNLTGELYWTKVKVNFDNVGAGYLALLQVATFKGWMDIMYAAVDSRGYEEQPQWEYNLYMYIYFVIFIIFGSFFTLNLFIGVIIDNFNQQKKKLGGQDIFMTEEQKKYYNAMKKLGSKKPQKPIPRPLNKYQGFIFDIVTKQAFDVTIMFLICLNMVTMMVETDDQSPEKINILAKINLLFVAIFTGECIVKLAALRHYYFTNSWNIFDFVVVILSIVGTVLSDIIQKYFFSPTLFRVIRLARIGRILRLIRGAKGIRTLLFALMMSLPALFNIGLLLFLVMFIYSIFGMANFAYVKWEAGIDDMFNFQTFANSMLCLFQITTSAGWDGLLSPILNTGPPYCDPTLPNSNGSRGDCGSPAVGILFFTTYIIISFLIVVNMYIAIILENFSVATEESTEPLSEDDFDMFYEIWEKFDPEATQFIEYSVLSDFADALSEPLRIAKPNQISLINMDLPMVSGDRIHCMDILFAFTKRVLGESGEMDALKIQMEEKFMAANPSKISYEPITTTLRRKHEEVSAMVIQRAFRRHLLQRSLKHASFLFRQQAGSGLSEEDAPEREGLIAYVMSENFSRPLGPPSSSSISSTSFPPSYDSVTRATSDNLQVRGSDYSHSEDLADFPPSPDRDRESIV

[23] = mouse, blood, 2 h; at 1 µg/mL
[24] = Plasma clearance in Sprague-Dawley rat at 2.6 mg/kg, iv up to 24 hrs by LC-MS analysis; format: ADME, organism-based
[25] = Volume of distribution at steady state in Balb/C mouse plasma at 3.5 mg/kg, iv up to 24 hrs by LC-MS analysis; format: ADME, organism-based; details: read-out: Vdss
[26] = Apparent half life in Balb/C mouse at 3.5 mg/kg, iv up to 24 hrs by LC-MS analysis; format: ADME, organism-based; details: in vivo, read-out: t1/2(app) (converted)
[27] = Half life in Sprague-Dawley rat at 2.6 mg/kg, iv up to 24 hrs by LC-MS analysis; format: ADME, organism-based; details: in vivo
physchem [28] = details: PBS, pH 6.5, pH 6.5
physchem [29] = details: HCl, pH 2, pH 2
physchem [30] = details: octanol/water, pH 7.4

| SMILES | half-life at 1 h, 1 µM (in vitro [9]) [min] | microsomal CLint at 1 h, 1 µM (in vitro [14]) [µL/min/mg] | CL free [15] [µL/min/mg] | half-life at 1 h, 1 µM (in vitro [17]) [min] | microsomal CLint at 1 h, 1 µM (in vitro [18]) [µL/min/mg] | CL free [19] [µL/min/mg] | solubility kinetic (physchem [28]) [µg/mL] | solubility kinetic (physchem [29]) [µg/mL] | logD (physchem [30]) | also measured |
| --- | --- | --- | --- | --- | --- | --- | --- | --- | --- | --- |
| COC(=O)c1ccccc1-c1c2ccc(=N)cc-2oc2cc(N)ccc12 | – | – | – | – | – | – | – | – | – | efflux ratio at 2 h, 20 µM (in vitro [1]): 8.4; Papp B→A at 2 h, 20 µM (in vitro [2]): 12 ×10⁻⁶ cm/s; Papp A→B at 2 h, 20 µM (in vitro [3]): 1.4 ×10⁻⁶ cm/s |
| N=C(N)NC(=O)c1nc(-c2cc3ccccc3o2)c(N)nc1N | 33 | 53 | 167 | 16 | 106 | 84 | – | – | – | Vd [4]: 8.9 L/kg; clearance [5]: 44.7 mL/min/kg; metabolised at 4 h, 1 ug/ml (in vitro [6]): < 6%; CL renal at 24 h [7]: 5.6 mL/min/kg; clearance [8]: 114 mL/min/kg; IC50 (cells): 22 µM; clearance [10]: 60 mL/min/kg; fraction unbound at […], 1 ug/ml (in vitro [11]): 0.06; Vd [12]: 17.5 L/kg; AUC(0-inf) [13]: 1.6 µM·h; dose excreted at 24 h [16]: 12.5%; bioavailability at 24 h (in vivo): < 5%; AUC(0-inf) [20]: 1.6 µM·h; Vd [21]: 2.2 L/kg; IC50 [22]: 22 µM; Stabilty [23]: Unstable; clearance [24]: 87.7 mL/min/kg; Vd [25]: 4.1 L/kg; half-life [26]: 43.8 min; half-life [27]: 294 min |
| N=C(N)NC(=O)c1nc(-c2cc3ccccc3s2)c(N)nc1N | 68 | 25 | 417 | 7 | 252 | 41 | 12.5 (≈ 38.2 µM) | 50 (≈ 153 µM) | 2.9 | – |
| N=C(N)NC(=O)c1nc(-c2ccc(C(F)(F)F)cc2)c(N2CCCCCC2)nc1N | 76 | 23 | 1020 | 26 | 66 | 355 | 3.1 (≈ 7.36 µM) | 25 (≈ 59.3 µM) | > 5.3 | – |

Second part, led by results:

| half-life at 1 h, 1 µM (in vitro [9]) [min] | microsomal CLint at 1 h, 1 µM (in vitro [14]) [µL/min/mg] | CL free [15] [µL/min/mg] | half-life at 1 h, 1 µM (in vitro [17]) [min] | microsomal CLint at 1 h, 1 µM (in vitro [18]) [µL/min/mg] | CL free [19] [µL/min/mg] | solubility kinetic (physchem [28]) [µg/mL] | solubility kinetic (physchem [29]) [µg/mL] | logD (physchem [30]) | SMILES | also measured |
| --- | --- | --- | --- | --- | --- | --- | --- | --- | --- | --- |
| 50 | 35 | 687 | 13 | 138 | 687 | 6.3 (≈ 18.3 µM) | 50 (≈ 146 µM) | – | N=C(N)NC(=O)c1nc(-c2ccco2)c(N2CCCCCC2)nc1N | – |
| 62 | 28 | 1283 | 21 | 83 | 433 | 3.1 (≈ 7.57 µM) | 12.5 (≈ 30.5 µM) | > 5.3 | N=C(N)NC(=O)c1nc(-c2cc3ccccc3s2)c(N2CCCCCC2)nc1N | – |
